Test results as given in patent US6579881B2 (Eisai Co., Ltd., priority 1997, dated 2003).
Structures can show the parent of a compound that is named as a salt. Where two headings read alike, the source gives them in different places.

Tests used:
[1] = target: serotonin 2 receptor (Rattus norvegicus, UniProt P14842); assay: Binding test on [3H] ketanserin (serotonin 2 receptor); conditions: [3H] ketanserin 0.3 nM, receptor fraction of rat cerebral cortex; read-out: 5HT2
[2] = test system: Straub's tail reaction (hyper-muscle tone in the tail); assay: Morphine induced Straub's tail phenomenon in mice; assay type: in vivo; conditions: Mus musculus, male ddY mice, 15 min before morphine hydrochloride 12.5 mg/kg s.c., statistically significant (p<0.05)
[3] = target: α1 adrenalin receptor; assay: Binding test on [3H] prazosin (α1 adrenalin receptor); set-up: species or system rat; conditions: [3H] prazosin about 0.2 nM, receptor fraction of rat cerebral cortex
[4] = target: T1, serotonin 1A receptor (Rattus norvegicus, UniProt P19327); assay: Binding test on [3H] 8-hydroxy-dipropylaminotetralin (serotonin 1A receptor); conditions: [3H] 8-OH-DPAT 0.5 nM, receptor fraction of rat hippocampus; read-out: 5HT1a
T1 construct: To the receptor fraction of the hippocampus were added a test compound and 0.5 nM of [^3H]; 8-hydroxy-dipropylaminotetralin; from tissue; host or cells: SD rat hippocampus, membrane (receptor) fraction
T1 sequence (P19327 1-422): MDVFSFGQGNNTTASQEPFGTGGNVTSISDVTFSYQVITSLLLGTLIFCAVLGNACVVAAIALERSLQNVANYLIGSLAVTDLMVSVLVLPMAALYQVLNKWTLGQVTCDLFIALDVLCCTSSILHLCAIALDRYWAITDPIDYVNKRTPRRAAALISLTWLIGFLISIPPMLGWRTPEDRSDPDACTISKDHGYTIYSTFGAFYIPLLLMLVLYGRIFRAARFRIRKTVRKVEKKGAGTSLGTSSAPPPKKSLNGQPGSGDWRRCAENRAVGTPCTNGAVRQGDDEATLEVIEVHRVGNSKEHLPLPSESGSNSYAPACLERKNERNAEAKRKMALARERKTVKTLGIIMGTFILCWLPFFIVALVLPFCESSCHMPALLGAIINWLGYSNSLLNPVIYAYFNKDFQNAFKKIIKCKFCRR

[5] = ip, i.p., read-out: minimal effective dose i.p.
[6] = po, p.o., read-out: minimal effective dose p.o.

Sequence of serotonin 2 receptor (P14842 whole entry): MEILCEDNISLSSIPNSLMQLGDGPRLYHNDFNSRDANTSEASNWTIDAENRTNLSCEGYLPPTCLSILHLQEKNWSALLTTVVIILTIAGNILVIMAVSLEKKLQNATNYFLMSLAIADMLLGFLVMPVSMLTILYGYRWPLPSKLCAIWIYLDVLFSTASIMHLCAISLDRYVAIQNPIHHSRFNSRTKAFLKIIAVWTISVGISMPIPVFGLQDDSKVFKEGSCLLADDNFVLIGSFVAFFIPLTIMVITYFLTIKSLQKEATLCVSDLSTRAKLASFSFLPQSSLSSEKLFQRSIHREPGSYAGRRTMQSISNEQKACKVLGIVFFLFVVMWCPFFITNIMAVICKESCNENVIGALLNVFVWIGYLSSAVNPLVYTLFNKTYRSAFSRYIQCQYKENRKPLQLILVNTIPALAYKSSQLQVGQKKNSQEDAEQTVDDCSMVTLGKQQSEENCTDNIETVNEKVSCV

Ki [1] | Ki [3] | Ki [4] | melting point | SMILES | minimal effective dose [2, 5] | minimal effective dose [2, 6]
1.27 nM | 68.6 nM | 10.4 nM |  | OC(c1ccc2c(c1)N(C1CCN(CCc3ccc(F)cc3)CC1)CC2)c1ncccn1 (centres unmarked) [Example 197, 1-[1-(4-fluorophenethyl)piperidin-4-yl]-6-[1-hydroxy-1-(pyrimidin-2-yl)methyl]indoline] |  | 10 mg/kg
3.06 nM | 188 nM | 15.1 nM |  | COc1ncccc1C(O)c1ccc2c(c1)N(C1CCN(CCc3ccc(F)cc3)CC1)CC2 (centres unmarked) [Example 184, 1-[1-(4-fluorophenethyl)piperidin-4-yl]-6-[1-hydroxy-1-(2-methoxypyridin-3-yl)methyl]indoline] |  | 3 mg/kg
2.17 nM |  | 1.49 nM |  | O=C1NCCN1Cc1ccc2c(c1)N(C1CCN(CCc3ccc(F)cc3)CC1)CC2 [Example 206, 1-[1-(4-fluorophenethyl)piperidin-4-yl]-6-(2-imidazolidonyl)methylindoline] |  | 10 mg/kg
4.8 nM |  | 8.8 nM |  | COc1ncc(CCN2CCC(N3CCc4ccccc43)CC2)s1 [Example 65, 1-[1-(2-methoxy-5-thiazolyl)ethylpiperidin-4-yl]indoline] |  | 30 mg/kg
 |  |  |  | NCC(CC(=O)O)c1ccc(Cl)cc1 (centres unmarked) [Baclofen, baclofen, reference compound] | 3 mg/kg | 10 mg/kg
3.32 nM |  | 14.6 nM |  | COc1cccc(C(O)c2ccc3c(c2)N(C2CCN(CCc4ccc(F)cc4)CC2)CC3)n1 (centres unmarked) [Example 186, 1-[1-(4-fluorophenethyl)piperidin-4-yl]-6-[1-hydroxy-1-(2-methoxypyridin-6-yl)methyl]indoline] |  | 10 mg/kg
 |  |  |  | CN1CCC(=C2c3ccccc3C=Cc3ccccc32)CC1 [Cyproheptadine, cyproheptadine hydrochloride, reference compound] | 3 mg/kg | 
4.79 nM | 90.5 nM | 1.22 nM | 97 to 98 °C | CC(C)C(=O)NCc1ccc2ccn(C3CCN(CCc4ccc(F)cc4)CC3)c2c1 [Example 354, 1-[1-(4-fluorophenethyl)piperidin-4-yl]-6-isobutyrylaminomethylindole] |  | 
8.12 nM | 88.5 nM | 0.22 nM | 148 to 149 °C | CC(=O)NCc1ccc2ccn(C3CCN(CCc4ccc(Cl)cc4)CC3)c2c1 [Example 349, 1-[1-(4-chlorophenethyl)piperidin-4-yl]-6-acetamidomethylindole] |  | 
> 20 nM | 53.7 nM | < 0.2 nM | 213 to 215 °C | CS(=O)(=O)Oc1ccc2ccn(C3CCN(CCc4ccc(F)cc4)CC3)c2c1 [Example 336, 1-[1-(4-fluorophenethyl)piperidin-4-yl]-6-methanesulfonyloxyindole] |  | 
11.4 nM | 123 nM | 1.92 nM | 134 to 135 °C | CC(=O)NCc1ccc2ccn(C3CCN(CCc4cccc(F)c4)CC3)c2c1 [Example 350, 1-[1-(3-fluorophenethyl)piperidin-4-yl]-6-acetamidomethylindole] |  | 
10.9 nM | 47 nM | 0.65 nM | 143 to 145 °C | O=S(=O)(CCCCl)NCc1ccc2ccn(C3CCN(CCc4ccc(F)cc4)CC3)c2c1 [Example 325, 1-[1-(4-fluorophenethyl)piperidin-4-yl]-6-(3-chloropropyl)sulfonamidomethylindole] |  | 
2.73 nM | 238 nM | 0.32 nM | 131.8 to 132.2 °C | CC(C)CNC(=O)Cc1ccc2ccn(C3CCN(CCc4ccc(F)cc4)CC3)c2c1 [Example 296, 1-[1-(4-fluorophenethyl)piperidin 4-yl]-6-[N-(isobutylcarbamoyl)methyl]indole] |  | 
8.28 nM | 77 nM | 0.11 nM | 133 to 135 °C | CS(=O)(=O)c1ccc2ccn(C3CCN(CCc4ccc(F)cc4)CC3)c2c1 [Example 331, 1-[1-(4-fluorophenethyl)piperidin-4-yl]-6-methanesulfonylindole] |  | 
0.65 nM | 44.3 nM | 2.24 nM | 173.8 to 174.6 °C | O=C(Cc1ccc2ccn(C3CCN(CCc4ccc(F)cc4)CC3)c2c1)NCC1OCCO1 [Example 347, 1-[1-(4-fluorophenethyl)piperidin-4-yl]-6-(1,3-dioxolan-2-ylmethyl)carbamoylmethylindole] |  | 
0.97 nM | 21.6 nM | 2.41 nM | 115 to 116 °C | CN(C)C(=O)NCc1ccc2ccn(C3CCN(CCc4ccc(F)cc4)CC3)c2c1 [Example 385, 1-[1-(4-fluorophenethyl)piperidin-4-yl]-6-N,N-dimethylaminocarbonylaminomethylindole] |  | 
2.29 nM | 84.4 nM | 1.34 nM | 163.3 to 163.8 °C | O=C(Cc1ccc2ccn(C3CCN(CCc4ccc(F)cc4)CC3)c2c1)NCCF [Example 310, 1-[1-(4-fluorophenethyl)piperidin-4-yl]-6-(2-fluoroethyl)carbamoylmethylindole] |  | 
> 20 nM | 60.9 nM | 0.1 nM | 80 to 81 °C | CCCS(=O)(=O)NCc1ccc2ccn(C3CCN(CCc4ccc(F)cc4)CC3)c2c1 [Example 324, 1-[1-(4-fluorophenethyl)piperidin-4-yl]-6-n-propylsulfonamidomethylindole] |  | 
60.5 nM | 143 nM | 2.92 nM | 190.5 to 192.2 °C (dec.) | O=C(Cc1ccc2ccn(C3CCN(CCc4ccc(F)cc4)CC3)c2c1)N1CCC(O)CC1 [Example 302, 1-[1-(4-fluorophenethyl)piperidin-4-yl]-6-(4-hydroxypiperidin-1-ylcarbonylmethyl)indole] |  | 
 |  |  |  | CN(C)CCC=C1c2ccccc2C=Cc2ccccc21 [Cyclobenzaprine, cyclobenzaprine hydrochloride, reference compound] | 10 mg/kg | 
 |  |  |  | Clc1ccc2nsnc2c1NC1=NCCN1 [Tizanidine, tizanidine hydrochloride, reference compound] | 1 mg/kg | 1 mg/kg
> 20 nM | 21.3 nM | 0.07 nM | 172 to 175 °C | CNS(=O)(=O)Cc1ccc2ccn(C3CCN(CCc4ccc(F)cc4)CC3)c2c1 [Example 338, 1-[1-(4-fluorophenethyl)piperidin-4-yl]-6-(N-methylsulfamoylmethyl)indole] |  | 
9.1 nM |  | 1.9 nM |  | O/N=C/c1ccc(CCN2CCC(N3CCc4ccccc43)CC2)cc1 [Example 34, 1-[1-(4-hydroxyiminomethylphenethyl)piperidin-4-yl]indoline] | ≤ 10 mg/kg | 30 mg/kg

SMILES | Ki [1] | Ki [3] | Ki [4] | melting point | minimal effective dose [2, 5] | minimal effective dose [2, 6]
COc1ccc2c(c1)N(C1CCN(CCc3ccc(F)cc3)CC1)CC2 [Example 106, 1-[1-(4-fluorophenethyl)piperidin-4-yl]-6-methoxyindoline] | 6.4 nM | 71.3 nM | 0.7 nM |  | 10 mg/kg | > 30 mg/kg
O=C(Cc1ccc2ccn(C3CCN(CCc4ccccc4F)CC3)c2c1)NCCO [Example 346, 1-[1-(2-fluorophenethyl)piperidin-4-yl]-6-(2-hydroxyethyl)carbamoylmethylindole] | 1.49 nM | 116 nM | 13.5 nM | 127.7 to 128.6 °C |  | 
O=C(Cc1ccc2ccn(C3CCN(CCc4ccc(F)cc4)CC3)c2c1)NCCO [Example 300, 1-[1-(4-fluorophenethyl)piperidin-4-yl]-6-(2-hydroxyethyl)carbamoylmethylindole] | 3.55 nM | 225 nM | 1.73 nM | 140 to 141.2 °C |  | 
CN(C)C(=O)Cc1ccc2ccn(C3CCN(CCc4ccc(F)cc4)CC3)c2c1.O=C(O)C(=O)O [Example 301, 1-[1-(4-fluorophenethyl)piperidin-4-yl]-6-dimethylcarbamoylmethylindole Oxalate] | 21.9 nM | 66.9 nM | 0.8 nM | 170.1 to 170.6 °C |  | 
O=C(CF)NCc1ccc2ccn(C3CCN(CCc4ccc(F)cc4)CC3)c2c1 [Example 366, 1-[1-(4-fluorophenethyl)piperidin-4-yl]-6-fluoroacetamidomethylindole] | 2.05 nM | 74.6 nM | 0.48 nM | 106 to 108 °C |  | 
CNC(=O)Cc1ccc2ccn(C3CCN(CCc4ccc(F)cc4)CC3)c2c1 [Example 316, 1-[1-(4-fluorophenethyl)piperidin-4-yl]-6-methylcarbamoylmethylindole] | 1.26 nM | 63.7 nM | 1.82 nM | 149.4 to 150.5 °C |  | 
